In patent US5880256A, “Factor VIIa inhibitors from Kunitz domain proteins” (Genentech, Inc., priority 1995, dated 1999):
Positions of bridges follow the written chain, without caps; N, C: chain ends. No end group written: not given here.

Columns and labels:
[1] = tested on: New Zealand white rabbits; experiment: Cuticle bleeding time in the rabbit model; format: in vivo; details: for bleeding compared to the saline control (in words): after 10 minutes
Protocol: Male New Zealand white rabbits (~4 kg) were anesthetized to surgical anesthesia plane with an IM injection of Ketamine / Xylaxine. The rabbits were placed supine on a restraining board, warmed to 37° C., and the neck and inner thigh area shaved. Teflon catheters were replaced in a marginal ear vein and femoral artery for drug delivery and sample collection respectively. Prior to treatment, blood samples were collected for coagulation tests (APTT and PT). Bleeding time was assessed from a cut made in the cuticle portion of a hind limb nail. Incisions were made in the neck region and the entire left common carotid artery and its branches were surgically isolated. An ultrasonic flow probe (Transonics®) was placed on the common carotid approximately 5 cm caudal to the common--internal bifurcation. After blood flow reached a stable baseline, drugs (saline or test compounds) were delivered via the marginal ear vein. A deflated embolectomy catheter (Fogarty®, 3F) was then introduced into the lumen of the common via an incision in the lingual branch. Blood flow through the artery was stopped briefly while the catheter was introduced and loosely secured with 2-0 silk tie at the incision site. After the catheter was in place and secure, blood flow was restored. The deflated balloon was advanced to within 2 mm of the flow probe and inflated with saline until resistance of the vessel wall was felt. The catheter was pulled back with a steady motion to the first branch and then deflated. This procedure was repeated a total of six times for each experimental animal, after which the catheter was removed. […] Over 40 minutes, blood samples were taken for APTT and PT measurements, cuticle bleeding times were assessed and blood flow through the carotid monitored. Duration of patency was defined as the total amount of time (maximum=40 minutes) that any measurable blood flow is detected in the artery. Patency rate refers to the percentage of animals tested who had carotid artery blood flow≥5 minutes. […] If any thrombus was present, it was removed, blotted and the weight recorded. […]

[2] = tested on: normal human plasma; experiment: Activated partial thromboplastin time (APTT) assay, initiated by ellagic acid; format: biochemical
Protocol: For the activated partial thromboplastin time (APTT) assays, the activation time was set at 120 sec and acquisition time at 300 to 600 sec depending on the expected outcome of the assay. Citrated normal human plasma and inhibitor were incubated together. The sample (plasma and inhibitor) and activator (Instrumentation Laboratories Ellagic acid/Phospholipid mix Test Reagent) were automatically pipetted and incubated together for 2 min at 37° C., then CaCl2 was added and clotting time determined by means of optical assessment. The total incubation time of inhibitor with plasma was ca. 3 min before addition of activator, and 5 min before addition of CaCl2.

[3] = tested on: New Zealand white rabbits; experiment: Rabbit deep medial injury model (carotid artery patency, thrombus weight); format: in vivo
Protocol: Male New Zealand white rabbits (~4 kg) were anesthetized to surgical anesthesia plane with an IM injection of Ketamine / Xylaxine. The rabbits were placed supine on a restraining board, warmed to 37° C., and the neck and inner thigh area shaved. Teflon catheters were replaced in a marginal ear vein and femoral artery for drug delivery and sample collection respectively. Prior to treatment, blood samples were collected for coagulation tests (APTT and PT). Bleeding time was assessed from a cut made in the cuticle portion of a hind limb nail. Incisions were made in the neck region and the entire left common carotid artery and its branches were surgically isolated. An ultrasonic flow probe (Transonics®) was placed on the common carotid approximately 5 cm caudal to the common--internal bifurcation. After blood flow reached a stable baseline, drugs (saline or test compounds) were delivered via the marginal ear vein. A deflated embolectomy catheter (Fogarty®, 3F) was then introduced into the lumen of the common via an incision in the lingual branch. Blood flow through the artery was stopped briefly while the catheter was introduced and loosely secured with 2-0 silk tie at the incision site. After the catheter was in place and secure, blood flow was restored. The deflated balloon was advanced to within 2 mm of the flow probe and inflated with saline until resistance of the vessel wall was felt. The catheter was pulled back with a steady motion to the first branch and then deflated. This procedure was repeated a total of six times for each experimental animal, after which the catheter was removed. […] Over 40 minutes, blood samples were taken for APTT and PT measurements, cuticle bleeding times were assessed and blood flow through the carotid monitored. Duration of patency was defined as the total amount of time (maximum=40 minutes) that any measurable blood flow is detected in the artery. Patency rate refers to the percentage of animals tested who had carotid artery blood flow≥5 minutes. At the end of the experiment the rabbit was euthanized and the carotid artery removed and opened. If any thrombus was present, it was removed, blotted and the weight recorded.
[Heparin was dosed as a 25 u/kg bolus followed by a continuous infusion of 1) 0.5 u/kg/min or 2) 1 u/kg/min. Other reagents were given as a 2 mg/kg IV bolus. With the exception of the patency data, values are expressed as means ±sem.]

CC[C@H](C)[C@@H]1NC(=O)[C@H](CC(C)C)NC(=O)[C@H](C)NC(=O)[C@H](CCCNC(=N)N)NC(=O)[C@@H]2CSSC[C@@H]3NC(=O)CNC(=O)CNC(=O)[C@H](Cc4ccc(O)cc4)NC(=O)[C@H](Cc4ccccc4)NC(=O)[C@H](Cc4ccccc4)NC(=O)[C@@H]4CCCN4C(=O)[C@H](C)NC(=O)[C@H](CSSC[C@H](NC(=O)[C@H](Cc4ccc(O)cc4)NC(=O)[C@H](CCC(=O)O)NC(=O)[C@H](CCC(=O)O)NC(=O)[C@H]([C@@H](C)O)NC(=O)[C@H](CC(=O)O)NC(=O)[C@H](Cc4ccccc4)NC(=O)[C@H](CC(N)=O)NC(=O)[C@H](CC(N)=O)NC(=O)[C@H](CCCNC(=N)N)NC(=O)[C@H](CC(N)=O)NC(=O)CNC(=O)[C@H](Cc4ccc(O)cc4)NC3=O)C(=O)N[C@@H](C)C(=O)N[C@@H](C)C(=O)N[C@@H](C(C)C)C(=O)N[C@H](C(=O)NCC(=O)N[C@@H](CO)C(=O)N[C@@H](C)C(=O)O)CSSC[C@H](NC(=O)[C@@H](NC(=O)[C@H](CCC(=O)O)NC(=O)[C@H](CCCNC(=N)N)NC(=O)[C@@H](N)C(C)C)C(C)C)C(=O)N[C@@H](CO)C(=O)N[C@@H](CCC(=O)O)C(=O)N[C@@H](CCC(N)=O)C(=O)N[C@@H](C)C(=O)N[C@@H](CCC(=O)O)C(=O)N3CCC[C@H]3C(=O)NCC(=O)N3CCC[C@H]3C(=O)N2)NC(=O)[C@H](CCCCN)NC(=O)CNC(=O)[C@H](CCC(=O)O)NC(=O)[C@H]([C@@H](C)O)NC(=O)[C@H](C(C)C)NC(=O)[C@H](CC(=O)O)NC(=O)[C@H](Cc2ccccc2)NC(=O)[C@H](Cc2ccc(O)cc2)NC(=O)[C@H](Cc2c[nH]c3ccccc23)NC(=O)[C@H](CCCNC(=N)N)NC(=O)[C@H](CC(C)C)NC1=O [TF7I-C]
bleeding compared to the saline control (in words) [1]: did not induce prolonged bleeding

APPI: Alzheimer's amyloid β-protein precursor inhibitor, 58 residue Kunitz domain, wild type (SEQ ID NO: 34) (VREVCSEQAETGPCRAMISRWYFDVTEGKCAPFFYGGCGGNRNNFDTEEYCMAVCGSA)
Cuticle bleeding time, fold increase over pre dose ([1]; in vivo, iv, 2 mg/kg): 2.2 ± 0.6 fold
APTT clotting time, fold prolongation ([2]; 40 μM inhibitor, uninhibited clotting time 31 s): 3.6 fold
APTT clotting time, fold prolongation ([2]; ca. 7 μM inhibitor): ca. 3 fold
Patency (%) ([3]; rabbit, 2 mg/kg IV bolus, animals with carotid blood flow ≥5 minutes): 40%
Patency Duration ([3]; rabbit, 2 mg/kg IV bolus, maximum 40 minutes, mean ± sem): 13.4 ± 8.5 min
Clot (mgs) ([3]; rabbit, 2 mg/kg IV bolus, thrombus weight, mean ± sem): 49.5 ± 18.2 mgs

Heparin
patency and clot size compared to the saline control (in words) ([3]; rabbit deep medial injury model): significantly prolonged patency and reduced clot size
Patency (%) ([3]; rabbit, Heparin 1: 25 u/kg bolus then 0.5 u/kg/min infusion): 67%
Patency Duration ([3]; rabbit, Heparin 1: 25 u/kg bolus then 0.5 u/kg/min infusion, mean ± sem): 23.3 ± 6.7 min
Patency (%) ([3]; rabbit, Heparin 2: 25 u/kg bolus then 1 u/kg/min infusion): 100%
Patency Duration ([3]; rabbit, Heparin 2: 25 u/kg bolus then 1 u/kg/min infusion, mean ± sem): 35.2 ± 2.2 min

VREVCSEQAEPGPCRAMMKRWYFDVTEGKCAPFIYGGCYGNRNNFDTEEYCAAVCGSA (disulfide 5-55, 14-38, 30-51) [IV-49C]
bleeding compared to the saline control (in words) [1]: did not induce prolonged bleeding
